Experimental data from ChEMBL document CHEMBL3085753, “Bridged tricyclic sesquiterpenes from the tubercle nudibranch Phyllidia coelestis Bergh” (J Nat Prod, 2013).

Key:
MCF7 = experiment: Antiproliferative activity against human MCF7 cells by SRB assay; assay type: functional, cell-based
[1] = Cytotoxicity against human Gingival fibroblasts at 20 uM by SRB assay; design: species or system Gingival fibroblast; settings: read-out: INH
KB = experiment: Antiproliferative activity against human KB cells by SRB assay; assay type: functional, cell-based
HT-29 [2] = experiment: Antiproliferative activity against human HT-29 cells at 20 uM by SRB assay; assay type: functional
HeLa = experiment: Antiproliferative activity against human HeLa cells by SRB assay; assay type: functional, cell-based
HT-29 [3] = experiment: Antiproliferative activity against human HT-29 cells by SRB assay; assay type: functional, cell-based

| IC50 (MCF7) [nM] | IC50 (KB) [nM] | IC50 (HeLa) [nM] | SMILES | cytotoxicity at 20 µM [1] [%] | inhibition at 20 µM (HT-29 [2]) [%] | IC50 (HT-29 [3]) [nM] |
| --- | --- | --- | --- | --- | --- | --- |
| 8200 | 1200 | 70 | CC(C)[C@@H]1C[C@@]2(C)[C@@H]3CC[C@@](C)(C[C@@H]31)[C@@H]2NC=O (relative stereo) | 25 | 35 |  |
| 650 | 2400 | 130 | CC(C)[C@@H]1C[C@@]2(C)[C@@H]3CC[C@](C)(NC=O)[C@H]2C[C@@H]31 (relative stereo) | 65 |  | 6800 |

| SMILES | IC50 (MCF7) [nM] | IC50 (KB) [nM] | IC50 (HeLa) [nM] | cytotoxicity at 20 µM [1] [%] | inhibition at 20 µM (HT-29 [2]) [%] | IC50 (HT-29 [3]) [nM] |
| --- | --- | --- | --- | --- | --- | --- |
| CC[C@@]1(O)C(=O)OCc2c1cc1n(c2=O)Cc2cc3ccccc3nc2-1 [CAMPTOTHECIN] | 3.3 | 20 | 130 |  |  | 0.7 |
